In the supplement of paper PMC10307832:

Legend:
Assay in all cases: relative viability (nuclei count vs DMSO), 5 days (fraction); higher = more cells survive
[1] = compound: C1COCCN1C2=NC(=NC3=C2OC4=C3C=CC=N4)C5=CC(=CC=C5)NC(=O)C6=CN=C(C=C6)N + Cc1nc(NC(=O)N2CCC[C@H]2C(N)=O)sc1-c1ccnc(C(C)(C)C(F)(F)F)c1 [Alpelisib] (partner 2 µM)
Procedure, shortened: (§1)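 After 5 days of treatment, lung cancer cells in 1536-well plates were fixed and stained in a single step (final 0.05% Triton X-100, 1% formaldehyde, 1 ug/ml Hoechst) and their nuclei counted on 4× images. Treatment had been applied by pin tool the day after seeding as one drug alone or as a fixed anchor-drug dose with five library-drug doses (not always all listed) in √10 steps. Relative viability is the nuclei count of treated wells divided by that of vehicle wells, and values are medians of duplicate plates.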

[2] = compound: C1COCCN1C2=NC(=NC3=C2OC4=C3C=CC=N4)C5=CC(=CC=C5)NC(=O)C6=CN=C(C=C6)N + O=C(c1cc(Cc2n[nH]c(=O)c3ccccc23)ccc1F)N1CCN(C(=O)C2CC2)CC1 [Olaparib] (partner 8 µM)
Procedure, shortened: as §1

[3] = compound: CN1CCC(CNc2ccc3ncc(-c4cccc(OC(F)(F)F)c4)n3n2)CC1 [SGI-1776] + CC(=O)Nc1cccc(-n2c(=O)n(C3CC3)c(=O)c3c(Nc4ccc(I)cc4F)n(C)c(=O)c(C)c32)c1 [Trametinib] (partner 0.02 µM)
Procedure, shortened: as §1

[4] = compound: CN1CCC(CNc2ccc3ncc(-c4cccc(OC(F)(F)F)c4)n3n2)CC1 [SGI-1776] + CS(=O)(=O)CCNCc1ccc(-c2ccc3ncnc(Nc4ccc(OCc5cccc(F)c5)c(Cl)c4)c3c2)o1 [Lapatinib] (partner 2 µM)
Procedure, shortened: as §1

Cell Line | relative viability ([1]; first compound 0.02 µM) | relative viability ([1]; first compound 0.06325 µM) | relative viability ([1]; first compound 0.2 µM) | relative viability ([1]; first compound 0.6325 µM) | relative viability ([1]; first compound 2 µM) | relative viability ([2]; first compound 0.02 µM) | relative viability ([2]; first compound 0.06325 µM) | relative viability ([2]; first compound 0.2 µM) | relative viability ([2]; first compound 0.6325 µM) | relative viability ([2]; first compound 2 µM) | relative viability ([3]; first compound 0.08 µM) | relative viability ([3]; first compound 0.8 µM) | relative viability ([3]; first compound 2.53 µM) | relative viability ([3]; first compound 8 µM) | relative viability ([4]; first compound 0.08 µM) | relative viability ([4]; first compound 0.8 µM) | relative viability ([4]; first compound 2.53 µM) | relative viability ([4]; first compound 8 µM)
NCI-H1755 | 1.07 | 1 | 0.965 | 0.863 | 0.397 | 0.875 | 0.922 | 0.92 | 0.702 | 0.594 | 0.802 | 0.741 | 0.762 | 0.651 | 0.995 | 1.09 | 0.967 | 0.788
NCI-H1792 | 0.55 | 0.717 | 0.768 | 0.351 | 0.358 | 0.826 | 0.598 | 0.303 | 0.235 | 0.219 | 0.446 | 0.446 | 0.437 | 0.324 | 0.908 | 0.988 | 0.867 | 0.756
NCI-H1793 | 0.812 | 0.842 | 0.655 | 0.852 | 0.59 | 0.831 | 0.884 | 0.968 | 0.769 | 0.508 | 0.418 | 0.518 | 0.589 | 0.444 | 0.701 | 0.749 | 0.668 | 0.974
NCI-H1915 | 1.01 | 1.17 | 1.08 | 1.05 | 0.971 | 0.215 | 0.273 | 0.245 | 0.266 | 0.269 | 0.317 | 0.281 | 0.309 | 0.277 | 0.981 | 0.95 | 0.972 | 0.949
NCI-H1944 | 0.894 | 0.705 | 0.851 | 0.782 | 0.731 | 0.424 | 0.41 | 0.42 | 0.413 | 0.512 | 0.389 | 0.408 | 0.426 | 0.378 | 0.81 | 0.727 | 0.915 | 0.601
NCI-H1975 | 0.677 | 0.705 | 0.548 | 0.567 | 0.352 | 0.772 | 0.865 | 1 | 0.86 | 0.381 | 0.389 | 0.33 | 0.325 | 0.313 | 0.922 | 0.928 | 0.899 | 0.838
NCI-H1993 | 0.651 | 0.624 | 0.691 | 0.697 | 0.595 | 0.949 | 1.07 | 1.06 | 0.958 | 0.201 | 0.576 | 0.496 | 0.765 | 0.538 | 0.839 | 0.958 | 0.841 | 0.636
NCI-H2009 | 1.26 | 1.24 | 1.16 | 1.11 | 0.838 | 0.695 | 0.674 | 0.689 | 0.725 | 0.687 | 0.345 | 0.303 | 0.234 | 0.175 | 0.985 | 0.897 | 1 | 0.766
NCI-H2023 | 0.68 | 0.621 | 0.544 | 0.438 | 0.359 | 0.587 | 0.519 | 0.379 | 0.463 | 0.316 | 0.539 | 0.508 | 0.491 | 0.312 | 0.918 | 1.21 | 1.04 | 0.219
NCI-H2085 | 0.956 | 0.988 | 0.926 | 0.909 | 0.596 | 0.735 | 0.793 | 0.747 | 0.68 | 0.547 | 0.665 | 0.612 | 0.511 | 0.453 | 0.838 | 0.847 | 0.748 | 0.687
NCI-H2087 | 1.05 | 1.12 | 1.05 | 1.12 | 0.619 | 0.582 | 0.62 | 0.546 | 0.636 | 0.32 | 0.151 | 0.164 | 0.16 | 0.17 | 1.1 | 1.03 | 1.09 | 1.13
NCI-H2126 | 0.778 | 0.726 | 0.732 | 0.753 | 0.627 | 0.889 | 0.962 | 0.876 | 0.865 | 0.532 | 0.585 | 0.572 | 0.293 | 0.472 | 0.72 | 0.742 | 0.772 | 0.71
NCI-H2170 | 0.847 | 0.887 | 0.682 | 0.854 | 0.496 | 0.736 | 0.652 | 0.528 | 0.624 | 0.41 | 0.925 | 0.924 | 0.855 | 0.912 | 0.263 | 0.269 | 0.275 | 0.275
NCI-H2228 | 0.737 | 0.707 | 0.66 | 0.493 | 0.317 | 0.822 | 0.69 | 0.481 | 0.564 | 0.33 | 0.591 | 0.487 | 0.52 | 0.35 | 0.816 | 1.21 | 0.927 | 0.415
NCI-H2347 | 1.06 | 1.03 | 1.06 | 0.998 | 0.842 | 0.532 | 0.625 | 0.571 | 0.517 | 0.532 | 0.323 | 0.278 | 0.3 | 0.277 | 1.13 | 0.965 | 0.948 | 0.869
NCI-H2405 | 0.664 | 0.716 | 0.803 | 0.815 | 0.622 | 0.856 | 0.862 | 0.874 | 0.891 | 0.659 | 0.679 | 0.595 | 0.568 | 0.398 | 0.994 | 1.14 | 1.19 | 0.728
NCI-H3122 | 0.808 | 0.798 | 0.681 | 0.772 | 0.676 | 0.665 | 0.614 | 0.625 | 0.935 | 0.483 | 0.238 | 0.19 | 0.274 | 0.244 | 0.964 | 1.05 | 1.07 | 0.988
PC-3 [JPC-3] | 0.976 | 1.05 | 1.1 | 0.991 | 0.829 | 1.19 | 1.19 |  | 1.17 | 0.709 | 0.757 | 0.73 | 0.656 | 0.462 | 0.441 | 0.466 | 0.478 | 0.371
PC-14 | 0.881 | 1.21 | 0.917 | 0.916 | 0.577 | 0.304 | 0.284 | 0.249 | 0.248 | 0.186 | 0.796 | 0.582 | 0.384 | 0.0529 | 0.337 | 0.31 | 0.261 | 0.209
RERF-LC-KJ | 0.809 | 0.946 | 0.828 | 0.861 | 0.616 | 0.953 | 0.982 | 0.866 | 0.93 | 0.554 | 0.917 | 0.843 | 0.722 | 0.707 | 0.867 | 0.868 | 0.728 | 0.795
SK-LU-1 | 0.956 | 1.04 | 0.879 | 0.749 | 0.473 | 0.429 | 0.432 | 0.607 | 0.478 | 0.355 | 0.557 | 0.541 | 0.533 | 0.408 | 0.861 | 1.03 | 0.782 | 0.667
SK-MES-1 | 0.949 | 1.07 | 0.984 | 0.971 | 0.724 | 0.71 | 0.816 | 0.611 | 0.51 | 0.427 | 0.546 | 0.521 | 0.494 | 0.324 | 0.494 | 0.447 | 0.449 | 0.404
SW 1573 | 0.659 | 0.912 | 0.734 | 0.699 | 0.576 | 0.488 | 0.508 | 0.439 | 0.459 | 0.36 | 0.525 | 0.444 | 0.463 | 0.305 | 1.29 | 1.09 | 1.15 | 1.06
